Laboratory results: patent US6486096B1, “Herbicidal compositions with acylated aminophenylsulfonylureas” (priority 1998, dated 2002)
Several values for one entry are separate records, joined by “and”; a condition that tells them apart may be missing. Identical values can stand only once. Like-named read-outs stand apart in the source and are kept apart here.

How the values were obtained:
Assay type in all cases: in vivo
SIDSP = Sida spinosa = test: Herbicidal action, visual scoring; conditions: post-emergence
Description: (§1) The herbicidal activity of the active substances or active substance mixtures was scored visually with the aid of the treated parcels in comparison with untreated control parcels. Damage to and development of all above-ground parts of plants was recorded here. Scoring was carried out on a percentage scale (100% action=all plants died; 50% action=50% of the plants and green plant parts died; 0% action=no discernible action=like control parcels. The mean of the scoring values of 4 parcels in each case was taken.
(§2) Seeds or rhizome pieces of monocotyledonous and dicotyledonous weeds are placed in sandy loam soil in pots, covered with soil and grown in the greenhouse under good growth conditions (temperature, humidity, water supply). Three weeks after sowing, the test plants in the three-leaf stage are treated with the compositions according to the invention. The compositions according to the invention which are formulated as wettable powders or as emulsion concentrates are sprayed in various dosages on the green parts of the plants at an application rate of 600 to 800 l of water/ha (converted). After the test plants have remained in the greenhouse for about 3 to 4 weeks under optimal growth conditions, the effect of the products is scored visually by comparison with untreated controls. When applied post-emergence, too, the compositions according to the invention have a good herbicidal activity against a broad spectrum of economically important grass weeds and broad-leaved weeds.
(§3) Crop plants were raised outdoors under natural outdoor conditions on plots in which seeds or rhizome sections of typical harmful plants had been sown or the natural weed infestation was used. The treatment with the compositions according to the invention was carried out after the emergence of the harmful plants and the crop plants, as a rule in the 2 to 4-leaf stage; in some cases (as indicated) the application of individual active substances or active substance combinations was carried out pre-emergence (cf. Example 1) or as a sequence treatment, in some cases pre-emergence and/or post-emergence.
(§4) After the application, e.g. 2, 4, 6 and 8 weeks after application, the action of the preparations was scored visually in comparison with untreated controls (cf. score in Example 1). […] The crop plants, however, were not damaged or were only insignificantly damaged as a result of the treatment with the herbicidal compositions.

corn = conditions: post-emergence
Description: as §1, §3, §4

SOLNI = test: Herbicidal action, visual scoring; conditions: Table 10, post-emergence, scoring 3 weeks after application, g of A.S./ha by row: r7 120, r8 60, r9 30, r10 15, r11 12, r12 6, r13 3, r14 30 + 6, r16 15 + 6, r18 30 + 3
Description: as §1, §2, §3, §4

[1] = test system: XANOR (Xanthium orientalis); test: Herbicidal action, visual scoring; conditions: Table 10, post-emergence, scoring 3 weeks after application, g of A.S./ha by row: r7 120, r8 60, r9 30, r10 15, r20 2000, r21 1000, r22 500, r23 30 + 1000, r25 15 + 1000, r27 30 + 500
Description: as §1, §2, §3, §4

Chrysanthemum coronarium = test: Herbicidal action, visual scoring; conditions: Table 8; post-emergence; scoring 46 days after application; g of A.S./ha by row: r7 60, r8 270, r9 450, r10 60 + 270
Description: as §1, §2, §3, §4

[2] = test system: IPOPU = Ipomoea purpureum; test: Herbicidal action, visual scoring; conditions: Table 3, post-emergence, scoring 6 weeks after application, g of A.S./ha 15, 30, 45, 60, 300, 30 + 300
Description: as §1, §2, §3, §4

Avena sterilis = test: Herbicidal action, visual scoring; conditions: Table 8; post-emergence; scoring 46 days after application; g of A.S./ha by row: r7 60, r8 270, r9 450, r10 60 + 270
Description: as §1, §2, §3, §4

[3] = test system: ABUTH = Abutilon theophrasti; test: Herbicidal action, visual scoring; conditions: Table 2; scoring 3 weeks after application; (pe) pre-emergence, (po) post-emergence; g of A.S./ha by row: r6 35 (po), r7 1120 + 1120 (pe), r9 (1120 + 1120) (pe) + 35 (po)
Description: as §1, §2, §3, §4

[4] = test system: PHBPU = Pharbitis purpurea; test: Herbicidal action, visual scoring; conditions: Table 2; scoring 3 weeks after application; (pe) pre-emergence, (po) post-emergence; g of A.S./ha by row: r6 35 (po), r7 1120 + 1120 (pe), r9 (1120 + 1120) (pe) + 35 (po)
Description: as §1, §2, §3, §4

[5] = test system: EPHHL = Euphorbia heterophylla; test: Herbicidal action, visual scoring; conditions: Table 13, post-emergence, scoring 3 weeks after application, g of A.S./ha by row: r7 30, r8 100, r9 150, r10 30 + 50
Description: as §1, §2, §3, §4

AGRRE = Agropyron repens = test: Herbicidal action, visual scoring; conditions: Table 6, post-emergence, scoring 3 weeks after application, g of A.S./ha by row: r6 30, r7 45, r8 60, r9 2.5, r10 5, r11 7.5, r12 30 + 2.5, r13 30 + 5
Description: as §1, §2, §3, §4

rice = test: Damage on crop plants (selectivity), visual scoring; conditions: Table 24; post-emergence; scoring 6 weeks after application; g of A.S./ha by row: r6 45, r7 22.5, r8 60, r9 30, r11 22.5 + 30, r13 60, r14 30, r16 22.5 + 30, r18 450, r20 22.5 + 450
Description: as §1, §3
(§5) After the application, e.g. 2, 4, 6 and 8 weeks after application, the action of the preparations was scored visually in comparison with untreated controls (cf. score in Example 1). […]

Brachiaria plantophylla = test: Herbicidal action, visual scoring; conditions: Table 24; post-emergence; scoring 6 weeks after application; g of A.S./ha by row: r6 45, r7 22.5, r8 60, r9 30, r11 22.5 + 30, r13 60, r14 30, r16 22.5 + 30, r18 450, r20 22.5 + 450
Description: as §1, §2, §3, §4

[6] = test system: CHEAL = Chenopodium album; test: Herbicidal action, visual scoring; conditions: Table 4; post-emergence; scoring 40 days after application; g of A.S./ha: 30, 45, 60, 300, 45 + 300
Description: as §1, §2, §3, §4

[7] = test system: POLCO = Polygonum convolvulus; test: Herbicidal action, visual scoring; conditions: Table 4; post-emergence; scoring 40 days after application; g of A.S./ha: 30, 45, 60, 300, 45 + 300
Description: as §1, with “taken. […]” for “taken.”
as §3, §4

[8] = test system: ECHCG = Echinochloa crus-galli; test: Herbicidal action, visual scoring; conditions: Table 12, post-emergence, scoring 3 weeks after application, g of A.S./ha by row: r6 120, r7 60, r8 30, r9 15, r10 1000, r11 500, r12 250, r13 30 + 500, r14 30 + 250, r15 15 + 250, r16 40, r17 20, r18 10, r19 30 + 20, r20 15 + 20, r21 30 + 10, r22 200, r23 100, r24 50, r25 30 + 100, r26 15 + 100, r27 30 + 50
Description: as §1, §2, §3, §4

[9] = test system: Sethoxidime-resistant corn (SR); test: Damage on crop plants (selectivity), visual scoring; conditions: Table 22, post-emergence, scoring 4 weeks after application, g of A.S./ha by row: r7 50, r8 25, r9 12.5, r10 400, r11 200, r12 100, r13 12.5 + 100, r14 12.5 + 200, r15 25 + 100
Description: as §1, §3, §5

[10] = Table 5, scoring 3 weeks after application, g of A.S./ha by row: r6 15, r7 30, r8 45, r9 60, r10 900, r11 30 + 900
[11] = Table 3, scoring 6 weeks after application, g of A.S./ha 15, 30, 45, 60, 300, 30 + 300

With CCCCCCCCSC(=O)Oc1cc(Cl)nnc1-c1ccccc1 [(B2.3.3), pyridate] the “Herbicidal action against SIDSP” value (SIDSP = Sida spinosa; [10]) was 10% and the Damage on corn (corn; [10]) was 0%.
COc1cc(OC)nc(NC(=O)NS(=O)(=O)c2cc(NC=O)ccc2C(=O)N(C)C)n1 [(A1.1), N-[N-(4,6-dimethoxypyrimidin-2-yl)aminocarbonyl]-2-(dimethylaminocarbonyl)-5-(formylamino)benzenesulfonamide] was tested, and the “Herbicidal action SOLNI” value (SOLNI; 15 g active substance per ha) was 65%, the “Herbicidal action SOLNI” value (SOLNI; 30 g active substance per ha) was 83% and the “Herbicidal action SOLNI” value (SOLNI; 60 g active substance per ha) was 90%. The “Herbicidal action SOLNI” value (SOLNI; 120 g active substance per ha) was 90%, the “Herbicidal action XANOR” value ([1]; 15 g active substance per ha) was 45% and the “Herbicidal action XANOR” value ([1]; 30 g active substance per ha) was 55%. For the same molecule, the “Herbicidal action XANOR” value ([1]; 120 g active substance per ha) was 60%, the “Herbicidal action against Chrysanthemum coronarium” value (Chrysanthemum coronarium) was 20% and the “Herbicidal action IPOPU” value ([2]; 15 g of A.S./ha) was 43%. For the same molecule, the “Herbicidal action IPOPU” value ([2]; 30 g of A.S./ha) was 67%, the “Herbicidal action IPOPU” value ([2]; 45 g of A.S./ha) was 70% and the “Herbicidal action IPOPU” value ([2]; 60 g of A.S./ha) was 83%. The “Herbicidal action against Avena sterilis” value (Avena sterilis) was 83%, the “Herbicidal action ABUTH” value [3] was 88% and the “Herbicidal action PHBPU” value [4] was 45%. The “Herbicidal action EPHHL” value [5] was 70%.
In the case of CS(=O)(=O)c1ccc(C(=O)C2C(=O)CCCC2=O)c([N+](=O)[O-])c1 [(B1.4.4), 2-(4-Mesyl-2-nitrobenzoyl)cyclohexane-1,3-dione], the “Herbicidal action EPHHL” value ([5]; 100 g of active substance per ha) is reported as 63% and the “Herbicidal action EPHHL” value ([5]; 150 g of active substance per ha) is reported as 73%.
For COc1nc(C)nc(NC(=O)NS(=O)(=O)c2cc(I)ccc2C(=O)O)n1 [(B2.4.4), iodosulfuron], the “Herbicidal action against AGRRE” value (AGRRE = Agropyron repens; 2.5 g of A.S./ha) was 0% and the “Herbicidal action against AGRRE” value (AGRRE = Agropyron repens; 5 g of A.S./ha) was 10%.
For COP(=S)(OC)SCC(=O)N(c1ccc(Cl)cc1)C(C)(C)C [(B1.6.11), anilofos], the Damage on rice (rice) was 8% and the “Herbicidal action Brachiaria plantophylla” value (Brachiaria plantophylla) was 35%.
For N#Cc1cc(Br)c(O)c(Br)c1 [(B2.2.1), bromoxynil], the “Herbicidal action SIDSP” value (SIDSP = Sida spinosa; [11]) was 70%, the “Herbicidal action IPOPU” value [2] was 53% and the “Herbicidal action CHEAL” value [6] was 75%. The “Herbicidal action POLC0” value [7] was 45%, the Damage on corn (corn; [11]) was 0% and the Damage on corn (corn; Table 4, scoring 40 days after application, g of A.S./ha: 30, 45, 60, 300, 45 + 300) was 0%.
With CC(C)N.O=C(O)CNCP(=O)(O)O [(B3.2.1), glyphosate-isopropylammonium] the “Herbicidal action ECHCG” value ([8]; 250 g active substance per ha) was 73%, the “Herbicidal action ECHCG” value ([8]; 500 g active substance per ha) was 83% and the “Herbicidal action ECHCG” value ([8]; 1000 g active substance per ha) was 98%.
In the case of CCC/C(=N\OCC)C1=C(O)CC(CC(C)SCC)CC1=O (stereo not shown) [(B1.6.33), sethoxydim], the “Damage on corn (SR)” value [9] is reported as 3% and 2% and 0%.
